The values that follow come from patent US4368267A, “Epoxidation of lower α-olefins” (priority 1980, dated 1983).

In assay [1] the target is T1, P(40), P(80), S(80) cell fractions of Methylococcus capsulatus (Texas, ATCC 19,069) (Methylococcus capsulatus, UniProt G1UBD1+Q603F1+Q607G3).
T1 sequence (G1UBD1 33-414): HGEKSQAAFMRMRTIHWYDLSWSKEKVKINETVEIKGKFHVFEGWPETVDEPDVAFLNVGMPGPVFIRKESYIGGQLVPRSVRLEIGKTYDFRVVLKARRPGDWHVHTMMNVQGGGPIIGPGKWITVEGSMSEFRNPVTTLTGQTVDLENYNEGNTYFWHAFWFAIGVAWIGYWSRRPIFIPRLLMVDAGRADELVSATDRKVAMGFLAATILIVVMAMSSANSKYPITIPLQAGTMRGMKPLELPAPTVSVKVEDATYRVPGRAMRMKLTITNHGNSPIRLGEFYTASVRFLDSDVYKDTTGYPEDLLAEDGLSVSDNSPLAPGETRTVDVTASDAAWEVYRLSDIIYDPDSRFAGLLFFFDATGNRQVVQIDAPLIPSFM
T1 sequence (Q607G3 1-247): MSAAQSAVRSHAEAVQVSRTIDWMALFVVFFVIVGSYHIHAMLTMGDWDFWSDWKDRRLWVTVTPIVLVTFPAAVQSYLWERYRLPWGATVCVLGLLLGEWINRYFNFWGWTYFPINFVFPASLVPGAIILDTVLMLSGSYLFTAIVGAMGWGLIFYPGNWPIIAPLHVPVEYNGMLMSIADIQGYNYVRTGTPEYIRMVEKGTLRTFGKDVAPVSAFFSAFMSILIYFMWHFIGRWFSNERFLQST
T1 sequence (Q603F1 1-260): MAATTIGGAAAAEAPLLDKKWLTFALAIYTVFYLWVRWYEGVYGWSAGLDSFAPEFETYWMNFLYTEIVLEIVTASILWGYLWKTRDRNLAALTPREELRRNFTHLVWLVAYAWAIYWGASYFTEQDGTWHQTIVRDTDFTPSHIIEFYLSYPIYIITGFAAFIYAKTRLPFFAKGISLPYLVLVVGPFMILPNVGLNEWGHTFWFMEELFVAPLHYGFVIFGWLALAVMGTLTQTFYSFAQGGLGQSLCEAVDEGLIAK
Nature of the assay: Methane and propylene oxidation by cell fractions. The class given is biochemical. As to the method:
(§1) Cells were washed twice with 25 mM potassium phosphate buffer, pH 7.0 containing 5 mM MgCl2. Cells were suspended in the same buffer. The cell suspensions at 4° C. were disintegrated by a single passage through a French Pressure cell (15,000 lb./in.^2) and centrifuged at 5000×g. for 15 min. to remove unbroken bacteria. The supernatant solution (crude extract) was then centrifuged at 40,000×g. for 30 min., yielding particulate P(40) and soluble S(40) fractions. The S(40) fraction was subsequently centrifuged at 80,000×g. for 60 min., yielding particulate P(80) and soluble S(80) fractions. The particulate fractions [P(40) and P(80)] were suspended in 25 mM potassium phosphate buffer, pH 7.0, containing 5 mM MgCl2 and homogenized at 4° C.
(§2) The oxidation of methane and propylene by particulate [(P)40 and (P)80] fractions and soluble [S(80)] fraction was measured at 30° C. by estimating the production of methanol and propylene oxide, respectively. The reaction mixtures contained in 1.0 ml: 150 mM potassium phosphate buffer, pH 7.0 containing 5 mM MgCl2, 0.6 ml; […] NADH, and cellular fraction.
(§3) Reaction mixtures were contained in 10 ml vials at 4° C. Vials were sealed with rubber caps. The gaseous phase in the vials was removed using vacuum and then was replaced with a gas mixture of methane or propylene and oxygen at a 1:1, v/v ratio. Oxidation of other gaseous n-alkanes and n-alkenes was examined as described above. For liquid substrates, 10 μl of substrate was used directly.
(§4) The products of epoxidation of n-alkenes and hydroxylation of n-alkanes were assayed by flame ionization gas chromatography using a stainless steel column (12'×1/8") packed with 10% Carbowax 20 M on 80/100 Chromosorb W and Porapak Q column. The column temperature was maintained isothermally at 120° C. The carrier gas flow rate was 30 ml/min. of helium. The various products were identified by retention time comparisons and co-chromatography with authentic standards.
(§5) Specific activities were expressed as μ moles of products formed per hour per mg. protein. Concentrations of protein in various fractions were determined by the method of Lowry et al., J. Biol. Chem. 193: 265-275 (1951).

For assay [2], the system named is P(40), P(80), S(80) cell fractions of Methylomonas sp. (CRL-17, NRRL B-11,208). In words: Methane and propylene oxidation by cell fractions. Type of assay: biochemical. The following applies: 30° C. Here is the method:
as §1, §2, §3, §4, §5

Assay [3] deals with P(40), P(80), S(80) cell fractions of Methylosinus trichosporium (OB3b, NRRL B-11,196). Nature of the assay: Methane and propylene oxidation by cell fractions. Type of assay: biochemical. The following applies: S(80) fraction, 30° C. As to the method: as §1, §2, §3, §4, §5
The test system of assay [4] is Methylococcus capsulatus strain MC. Nature of the assay: Stimulation of propylene epoxidation in cell suspensions. Type of assay: cell-based. The following applies: propylene alone. Here is the method: The pH of the nutrient medium was adjusted to 7.0 by the addition of acid or base and 50 ml aliquots of the nutrient medium was charged into a plurality of 300 ml shake flasks. The shake flasks were inoculated with an inoculating loop of cells from an agar plate containing homogeneous colonies of the microorganisms on the plate (the purity of the isolates were confirmed by microscopic examination). The isolates had been maintained on agar plates under an atmosphere of methane and air having a 1:1 v/v gas ratio which had been transferred every two weeks. The gaseous phase of the inoculated flasks was then replaced with a gas mixture comprised of methane and air having a ratio of 1:1 on a v/v basis. The inoculated flasks were sealed air tight and were incubated on a rotary shaker of orbital radius 2.5 cm at 250 rpm and at 30° C. for two days until the turbidity in the medium had developed.
The cells were harvested by centrifugation at 10,000 ×g at 4° C. for 30 minutes. The cell pellet was washed twice with a 0.15 M phosphate buffer at a pH of 7.0 (containing 0.002 M MgCl2). The washed cells were then suspended in a 0.15 M phosphate buffer at pH 7.0.
A 0.5 ml aliquot of each washed cell suspension (2 mg cells) was put into 10 ml vials at 4° C. which were sealed with a rubber cap. The gaseous phase of the vials was removed with vacuum and then was replaced with a gas mixture of alkene and oxygen at a 1:1 v/v ratio. It was then incubated at 30° C. on a rotary shaker at 300 rpm. Samples of product (3 μl) were withdrawn periodically with a microsyringe and the products were analyzed by gas chromatography (ionization flame detector column).
Several experiments were carried out using a plurality of compounds capable of generating the necessary reducing power (NADH2 or NADPH2) required for the epoxidation of alkenes or dienes. These experiments were carried out using cell suspensions of methane grown methylotrophs using the procedure as described in Example 1 except that a stimulator compound was added to the reaction medium.

With `C` [Methane], the “% Distribution in Cell Fraction, Methane-Hydroxylating Activity, P(40)” value in assay [1] (P(40) fraction) amounted to 90%. Also, the “Methane-Oxidizing Activity, P(40)” value is recorded as 3.8 μmoles of product formed per h in assay [1] (P(40) fraction, 30° C.) and 2.9 μmoles of product formed per h in assay [2] (P(40) fraction). In addition, the “% Distribution in Cell Fraction, Methane-Hydroxylating Activity, P(80)” value in assay [1] (P(80) fraction) was determined as 10%. The “Methane-Oxidizing Activity, P(80)” value was 3.9 μmoles of product formed per h in assay [1] (P(80) fraction, 30° C.) and 2.7 μmoles of product formed per h in assay [2] (P(80) fraction). The “% Distribution in Cell Fraction, Methane-Hydroxylating Activity, S(80)” value in assay [1] (S(80) fraction) turned out to be 0%. The “Methane-Oxidizing Activity, S(80)” value was 0 μmoles of product formed per h in assay [1] (S(80) fraction, 30° C.); 0 μmoles of product formed per h in assay [2] (S(80) fraction); 0 μmoles of product formed per h in assay [3].
As to `C=CC` [Propylene], in assay [4], the “Rate of Product Formation (Propylene Oxide)” value is on record as 3.5 nmoles/hr/mg protein. The “% Distribution in Cell Fraction, Propylene-Epoxidizing Activity, P(40)” value in assay [1] (P(40) fraction) is recorded as 89%. In addition, the “Propylene-Oxidizing Activity, P(40)” value in assay [1] (P(40) fraction, 30° C.) is recorded as 2.6 μmoles of product formed per h; in assay [2] (P(40) fraction) it was 2.2 μmoles of product formed per h. For the same compound, in assay [1] (P(80) fraction), the “% Distribution in Cell Fraction, Propylene-Epoxidizing Activity, P(80)” value was 11%. Further, the “Propylene-Oxidizing Activity, P(80)” value in assay [1] (P(80) fraction, 30° C.) is 2.0 μmoles of product formed per h; in assay [2] (P(80) fraction), 2.0 μmoles of product formed per h. Also, the “% Distribution in Cell Fraction, Propylene-Epoxidizing Activity, S(80)” value in assay [1] (S(80) fraction) was 0%. For the same compound, the “Propylene-Oxidizing Activity, S(80)” value in assay [1] (S(80) fraction, 30° C.) is 0 μmoles of product formed per h; in assay [2] (S(80) fraction) it was 0 μmoles of product formed per h; in assay [3] it was 0 μmoles of product formed per h.
